How the values were obtained:
[1] = molecular target: T1, α7nAChR-FLNA association (Rattus norvegicus, UniProt A0A8I5ZV49); test: Rat frontal cortical synaptosomes treated with Aβ42, anti-FLNA immunoprecipitation / Western blot; format: cell-based
T1 construct: from tissue; host or cells: rat frontal cortical synaptosomes
Excerpt: The α7nAChR-FLNA complexes in the solubilized synaptosomes were immunoprecipitated with immobilized anti-FLNA and the α7nAChR and FLNA levels in the anti-FLNA immunoprecipitates determined by Western blotting (FIG. 14A) and quantified by densitometry for illustrative compounds (FIG. 14B). n=3. […] The letter designation “M” that accompanies many of the “C-series” compounds is omitted from FIG. 14, the remaining figures and most discussions of the figures and compounds hereinafter for ease in expression. Structural formulas of the compounds used in this and the other figures are provided hereinafter.
(§1) The complexes in the solubilized synaptosomes, and α7nAChR, TLR4 and FLNA levels in the anti-FLNA immunoprecipitates were determined by Western blotting (FIG. 15A) in which numerals outside of and to the left of the blots are as discussed before. Amounts present in the blots were quantified by densitometry (FIG. 15B). […] Structural formulas of the compounds used in this and the other figures are provided hereinafter.

[2] = molecular target: KAPPA opioid receptor (Homo sapiens, UniProt P41145); details: cited from earlier work
Sequence of KAPPA opioid receptor (P41145 whole entry): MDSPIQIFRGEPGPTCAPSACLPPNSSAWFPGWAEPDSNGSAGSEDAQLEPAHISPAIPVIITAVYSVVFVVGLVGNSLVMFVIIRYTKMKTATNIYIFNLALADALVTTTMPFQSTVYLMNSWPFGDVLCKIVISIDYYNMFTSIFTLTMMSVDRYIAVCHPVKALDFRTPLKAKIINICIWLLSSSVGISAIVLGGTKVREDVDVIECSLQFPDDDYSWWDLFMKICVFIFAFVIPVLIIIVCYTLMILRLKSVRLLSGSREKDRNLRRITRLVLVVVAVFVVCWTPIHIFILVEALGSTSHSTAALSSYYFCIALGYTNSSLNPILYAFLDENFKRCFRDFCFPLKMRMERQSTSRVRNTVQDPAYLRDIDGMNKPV

[3] = molecular target: FLNA pentapeptide VAKGL (SEQ ID NO: 1) (Homo sapiens, UniProt P21333); test: FITC-NLX-based FLNA screening assay; format: binding; details: for inhibition at 0.0001 µM: 0.1 nM compound; for inhibition at 0.0001 µM / inhibition at 0.001 µM / inhibition at 0.01 µM / inhibition at 0.1 µM / inhibition at 1 µM: 100 nM frozen-stored FITC-NLX, average of two runs, read-out: Percent inhibition of FITC-NLX binding, preliminary study; for inhibition at 0.001 µM: 1 nM compound; for inhibition at 0.01 µM: 10 nM compound; for inhibition at 0.1 µM: 100 nM compound; for inhibition at 1 µM: 1 μM compound
[4] = molecular target: T2, mu opiate receptor (MOR) (Rattus norvegicus, UniProt P33535); test: MOR agonist activity using [35S]GTPγS binding assay in striatal membranes; format: biochemical; details: for MOR agonist activity ([35S]GTPγS binding to Gαo), preliminary study: average of two runs; for MOR agonist activity, [35S]GTPγS binding, FLNA-binding compound as agonist at 0.1 μM: 0.1 μM compound; for MOR agonist activity, [35S]GTPγS binding, FLNA-binding compound as agonist at 0.1 μM / MOR agonist activity, [35S]GTPγS binding, 1 μM + BFNA / MOR agonist activity, [35S]GTPγS binding, FLNA-binding compound as agonist at 1 μM: striatal membranes; for MOR agonist activity, [35S]GTPγS binding, FLNA-binding compound as agonist at 0.1 μM / MOR agonist activity, [35S]GTPγS binding, FLNA-binding compound as agonist at 1 μM: Series C-2; for MOR agonist activity, [35S]GTPγS binding, 1 μM + BFNA: 1 μM compound + 1 μM β-FNA (MOR antagonist); for MOR agonist activity, [35S]GTPγS binding, FLNA-binding compound as agonist at 1 μM: 1 μM compound
T2 construct: from tissue; host or cells: striatal tissue (membrane preparation)
T2 sequence (P33535 whole entry): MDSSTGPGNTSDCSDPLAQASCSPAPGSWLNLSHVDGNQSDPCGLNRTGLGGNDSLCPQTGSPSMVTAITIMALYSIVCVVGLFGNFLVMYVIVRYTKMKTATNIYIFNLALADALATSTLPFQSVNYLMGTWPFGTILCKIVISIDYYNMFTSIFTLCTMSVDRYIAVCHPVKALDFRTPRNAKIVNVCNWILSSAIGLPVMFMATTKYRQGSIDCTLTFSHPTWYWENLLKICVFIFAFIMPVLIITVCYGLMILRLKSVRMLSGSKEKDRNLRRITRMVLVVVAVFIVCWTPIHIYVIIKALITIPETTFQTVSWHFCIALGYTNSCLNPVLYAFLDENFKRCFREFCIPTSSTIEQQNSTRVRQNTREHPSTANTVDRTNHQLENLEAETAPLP
Description: To assess the mu opiate receptor (MOR) agonist activity of positive compounds from the FLNA screening, compounds were tested in a [^35S]GTPγS binding assay using striatal membranes. […] This assay measures a functional consequence of receptor occupancy at one of the earliest receptor-mediated events. The assay permits for traditional pharmacological parameters of potency, efficacy and antagonist affinity, with the advantage that agonist measures are not subjected to amplification or other modulation that may occur when analyzing parameters further downstream of the receptor.
Thus, striatal tissue was homogenized in 10 volumes of ice cold 25 mM HEPES buffer, pH 7.4, which contained 1 mM EGTA, 100 mM sucrose, 50 μg/ml leupeptin, 0.04 mM PMSF, 2 μg/ml soybean trypsin inhibitor and 0.2% 2-mercaptoethanol. The homogenates were centrifuged at 800×g for 5 minutes and the supernatants were centrifuged at 49,000×g for 20 minutes.
The resultant striatal membrane preparation (200 μg) was admixed and maintained (incubated) at 30° C. for 5 minutes in reaction buffer as above that additionally contained 1 mM MgCl2 and 0.5 nM [^35S]GTPγS (0.1 μCi/assay, PerkinElmer Life and Analytical Sciences) in a total volume of 250 μl and continued for 5 minutes in the absence or presence of 0.1-10 μM of an assayed compound of interest. The reaction was terminated by dilution with 750 μl of ice-cold reaction buffer that contained 20 mM MgCl2 and 1 mM EGTA and immediate centrifugation at 16,000×g for 5 minutes.
Normal rabbit serum (1 μl) was added to 1 ml of lysate and incubated at 25° C. for 30 minutes. Nonspecific immune complexes were removed by incubation with 25 μl of protein A/G-conjugated agarose beads at 25° C. for 30 minutes followed by centrifugation at 5,000×g at 4° C. for 5 minutes. The supernatant was divided and separately incubated at 25° C. for 30 minutes with antibodies raised against Gαo proteins (1:1,000 dilutions).
The immunocomplexes so formed were collected by incubation at 25° C. for 30 minutes with 40 μl of agarose-conjugated protein A/G beads and centrifugation at 5,000×g at 4° C. for 5 minutes. The pellet was washed and suspended in buffer containing 50 mM Tris-HCl, pH 8.0, and 1% NP-40. The radioactivity in the suspension was determined by liquid scintillation spectrometry.

[5] = molecular target: T3, TLR4/FLNA (Rattus norvegicus, UniProt A0A8I5ZV49); test: Rat frontal cortical synaptosomes treated with Aβ42, anti-FLNA immunoprecipitation / Western blot; format: cell-based; details: 1 or 10 nM compound, simultaneously or 10 min prior to 0.1 μM Aβ42; Dunnett's test
T3 construct: from tissue; host or cells: rat frontal cortical synaptosomes
T3 sequence (A0A8I5ZV49 1-2647): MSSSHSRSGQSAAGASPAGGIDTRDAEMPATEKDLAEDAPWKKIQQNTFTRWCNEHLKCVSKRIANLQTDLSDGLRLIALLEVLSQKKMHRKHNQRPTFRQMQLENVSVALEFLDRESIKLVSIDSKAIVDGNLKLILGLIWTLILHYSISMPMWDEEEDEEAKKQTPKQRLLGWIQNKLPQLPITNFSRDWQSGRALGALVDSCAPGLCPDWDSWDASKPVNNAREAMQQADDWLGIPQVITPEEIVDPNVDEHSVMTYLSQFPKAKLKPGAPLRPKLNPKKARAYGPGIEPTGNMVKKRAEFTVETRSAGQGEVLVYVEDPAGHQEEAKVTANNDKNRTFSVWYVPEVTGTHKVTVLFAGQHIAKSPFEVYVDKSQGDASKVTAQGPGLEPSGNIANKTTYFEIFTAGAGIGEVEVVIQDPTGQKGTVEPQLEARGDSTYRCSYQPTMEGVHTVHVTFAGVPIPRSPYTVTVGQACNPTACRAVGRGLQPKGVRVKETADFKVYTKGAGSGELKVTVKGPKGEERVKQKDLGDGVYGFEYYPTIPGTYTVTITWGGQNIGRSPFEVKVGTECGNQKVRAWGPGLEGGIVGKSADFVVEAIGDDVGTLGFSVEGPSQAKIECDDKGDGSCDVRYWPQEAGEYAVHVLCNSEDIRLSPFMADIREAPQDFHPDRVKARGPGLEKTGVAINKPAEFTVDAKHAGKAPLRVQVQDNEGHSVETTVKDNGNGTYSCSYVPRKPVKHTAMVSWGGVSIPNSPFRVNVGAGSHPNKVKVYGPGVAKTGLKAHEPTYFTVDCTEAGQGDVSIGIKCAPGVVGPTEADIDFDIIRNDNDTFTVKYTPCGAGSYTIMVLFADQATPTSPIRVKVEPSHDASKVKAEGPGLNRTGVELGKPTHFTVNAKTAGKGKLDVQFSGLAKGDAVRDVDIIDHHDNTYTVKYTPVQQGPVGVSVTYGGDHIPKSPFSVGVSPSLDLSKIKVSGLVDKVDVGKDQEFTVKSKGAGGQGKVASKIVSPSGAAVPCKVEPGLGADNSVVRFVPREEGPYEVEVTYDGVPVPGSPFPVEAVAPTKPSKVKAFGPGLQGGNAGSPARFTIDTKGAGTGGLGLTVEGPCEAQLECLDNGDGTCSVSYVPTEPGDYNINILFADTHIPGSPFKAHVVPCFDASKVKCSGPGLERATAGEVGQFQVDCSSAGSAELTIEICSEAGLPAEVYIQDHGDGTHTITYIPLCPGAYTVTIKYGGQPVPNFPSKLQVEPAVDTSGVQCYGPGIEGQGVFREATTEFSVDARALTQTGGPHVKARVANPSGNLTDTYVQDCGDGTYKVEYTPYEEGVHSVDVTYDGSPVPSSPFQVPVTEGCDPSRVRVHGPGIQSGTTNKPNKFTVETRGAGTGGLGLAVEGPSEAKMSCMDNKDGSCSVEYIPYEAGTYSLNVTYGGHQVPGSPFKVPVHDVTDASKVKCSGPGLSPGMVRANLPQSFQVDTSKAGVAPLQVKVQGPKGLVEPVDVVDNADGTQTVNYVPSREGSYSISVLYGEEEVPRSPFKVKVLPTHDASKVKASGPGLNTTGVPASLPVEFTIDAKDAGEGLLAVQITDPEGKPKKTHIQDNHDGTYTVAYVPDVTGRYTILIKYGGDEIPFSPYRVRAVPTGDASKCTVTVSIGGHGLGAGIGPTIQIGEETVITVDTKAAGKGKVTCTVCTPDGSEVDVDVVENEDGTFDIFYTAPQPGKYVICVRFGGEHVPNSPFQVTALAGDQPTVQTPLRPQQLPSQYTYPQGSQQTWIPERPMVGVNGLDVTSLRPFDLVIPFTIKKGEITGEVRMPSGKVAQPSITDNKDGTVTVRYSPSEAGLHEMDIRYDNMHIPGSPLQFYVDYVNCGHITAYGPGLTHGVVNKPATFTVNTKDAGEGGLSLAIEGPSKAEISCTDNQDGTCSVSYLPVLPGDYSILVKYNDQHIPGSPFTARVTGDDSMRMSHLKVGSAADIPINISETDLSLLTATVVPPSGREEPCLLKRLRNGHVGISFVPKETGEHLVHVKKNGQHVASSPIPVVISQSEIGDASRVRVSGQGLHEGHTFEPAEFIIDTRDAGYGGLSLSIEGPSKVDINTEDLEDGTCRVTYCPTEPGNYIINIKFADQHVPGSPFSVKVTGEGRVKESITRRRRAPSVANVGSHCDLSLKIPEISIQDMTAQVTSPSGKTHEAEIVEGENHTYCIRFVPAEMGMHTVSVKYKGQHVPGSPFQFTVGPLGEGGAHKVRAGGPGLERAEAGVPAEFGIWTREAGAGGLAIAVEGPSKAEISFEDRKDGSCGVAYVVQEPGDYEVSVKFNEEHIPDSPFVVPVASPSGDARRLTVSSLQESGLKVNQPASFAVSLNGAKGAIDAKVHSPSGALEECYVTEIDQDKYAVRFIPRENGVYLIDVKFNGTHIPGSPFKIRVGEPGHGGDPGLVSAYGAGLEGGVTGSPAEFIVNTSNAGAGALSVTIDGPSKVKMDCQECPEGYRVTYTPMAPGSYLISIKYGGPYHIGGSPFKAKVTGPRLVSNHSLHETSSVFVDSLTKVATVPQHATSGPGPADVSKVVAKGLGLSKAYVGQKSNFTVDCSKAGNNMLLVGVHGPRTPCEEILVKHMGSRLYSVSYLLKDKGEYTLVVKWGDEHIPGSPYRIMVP
Description: as §1

[6] = molecular target: T4, human FLNA-α7nAChR complex (Homo sapiens, UniProt P21333); test: Supplemental ELISA for FLNA-α7nAChR complex (Example 8: specificity, accuracy, precision, linearity, detection limit)
T4 construct: To determine the levels of FLNA-α7nAChR, FLNA-TLR4 and α7nAChR-Aβ42 complexes in the lymphocytes; endogenous in cells; host or cells: lymphocytes from venous blood of AD patients and control subjects (ex vivo)
Description: The following ELISA method activities were carried out to quantify FLNA-α7nAChR complex: specificity; accuracy; precision/repeatability; linearity and range; and, detection limit.
To assure ELISA assay uniquely identifies human FLNA-α7nAChR complex, the cross reactivity to human FLNA-α7nAChR complex, unrelated human proteins human leptin and human chorionic gonadotropin (hLeptin and hCG) were added to the lymphocyte lysate preparations and the ELISA assay performed.
To assure the ELISA assay returns a value that is representative of the “true” value, a range of concentrations of recombinant human leptin was spiked into lysate sample with FLNA-α7nAChR complex. Recovery percent concentrations were measured and accuracy calculated.
To assure that three measurements of a single lysate sample (e.g., sample AD#63) made in the same assay provide the same result, three samples were measured using the ELISA assay, three times on the same day using the same methods (repeatability). Within-day RSD was calculated.
To assure that the response is linear over the range of expected sample values, OD 450 of different concentrations of human FLNA-α7nAChR complex were detected using the ELISA assay. […]

[7] = 0.1 or 1 nM compound, simultaneously with or 10 min prior to Aβ42

T1 sequence (A0A8I5ZV49 1-2647): as above

C=CCN1CC[C@]23c4c5ccc(O)c4O[C@H]2C(=O)CC[C@]3(O)[C@H]1C5 [(+) NLX, (+)naloxone, reference compound]
Effect on Aβ42-induced α7nAChR-FLNA association (in words) [1, 7]: reduce α7nAChR-FLNA association

Oc1ccc2c3c1O[C@H]1c4[nH]c5c(c4C[C@@]4(O)C(C2)N(CC2CC2)CC[C@]314)C[C@@]1(O)[C@H]2Cc3ccc(O)c4c3[C@@]1(CCN2CC1CC1)[C@H]5O4 [Binaltrophimine]
Opioid receptor activity and relative potency, KAPPA [2]: − −

O=S(=O)(c1ccc(OC(F)(F)F)cc1)N1CCOC12CCN(CC1CC1)CC2 [Compound 4]
inhibition at 0.0001 µM [3]: 18.8%
inhibition at 0.001 µM [3]: 21.3%
inhibition at 0.01 µM [3]: 17.9%
inhibition at 0.1 µM [3]: 28.8%
inhibition at 1 µM [3]: 42.9%
MOR agonist activity ([35S]GTPγS binding to Gαo), preliminary study ([4]; 0.1 μM compound as agonist): 133.9%
MOR agonist activity ([35S]GTPγS binding to Gαo), preliminary study ([4]; 1 μM + βNFA): 49.5%
MOR agonist activity ([35S]GTPγS binding to Gαo), preliminary study ([4]; 1 μM compound as agonist): 165.2%

Cc1ccc(S(=O)(=O)N2CCOC23CCN(CC2CCC2)CC3)cc1 [Compound 9]
inhibition at 0.0001 µM [3]: 22.5%
inhibition at 0.001 µM [3]: 24.8%
inhibition at 0.01 µM [3]: 27.7%
inhibition at 0.1 µM [3]: 35.3%
inhibition at 1 µM [3]: 49.6%
MOR agonist activity ([35S]GTPγS binding to Gαo), preliminary study ([4]; 0.1 μM compound as agonist): 156.6%
MOR agonist activity ([35S]GTPγS binding to Gαo), preliminary study ([4]; 1 μM + βNFA): 56.6%
MOR agonist activity ([35S]GTPγS binding to Gαo), preliminary study ([4]; 1 μM compound as agonist): 197.2%

C=CCN1CCC2(CC1)OCCN2S(=O)(=O)c1ccc(C)cc1 [Compound 10]
inhibition at 0.0001 µM [3]: 27.5%
inhibition at 0.001 µM [3]: 27.3%
inhibition at 0.01 µM [3]: 26.6%
inhibition at 0.1 µM [3]: 27.3%
inhibition at 1 µM [3]: 34.5%
MOR agonist activity ([35S]GTPγS binding to Gαo), preliminary study ([4]; 0.1 μM compound as agonist): 163.1%
MOR agonist activity ([35S]GTPγS binding to Gαo), preliminary study ([4]; 1 μM + βNFA): 60.4%
MOR agonist activity ([35S]GTPγS binding to Gαo), preliminary study ([4]; 1 μM compound as agonist): 191.8%

CC1CCC(C(C)C)C(OCC(CN2CC(C)OC(C)C2)NCc2ccccc2)C1 (stereo not shown) [Compound A0033]
Effect on Aβ42-induced α7nAChR-FLNA association (in words) [1, 7]: reduce α7nAChR-FLNA association

CC1CCC(C(C)C)C(OCC(O)CN2CCc3ccccc3C2)C1 (stereo not shown) [Compound A0040]
Effect on Aβ42-induced α7nAChR-FLNA association (in words) [1, 7]: reduce α7nAChR-FLNA association

COc1ccc(OCC(O)CN2CCc3ccccc3C2)cc1 (stereo not shown) [Compound A0053]
Effect on Aβ42-induced α7nAChR-FLNA association (in words) [1, 7]: reduce α7nAChR-FLNA association

CC1CCC(C(C)C)C(OCC(O)CN2CCCc3ccccc32)C1 (stereo not shown) [Compound A0068]
Effect on Aβ42-induced α7nAChR-FLNA association (in words) [1, 7]: reduce α7nAChR-FLNA association

CN1CCC2(CC1)NCC(=O)N2Cc1ccccc1 [Compound C0105M]
MOR agonist activity, [35S]GTPγS binding, FLNA-binding compound as agonist at 0.1 μM [4]: 198.1%
MOR agonist activity, [35S]GTPγS binding, 1 μM + BFNA [4]: 73.1%
MOR agonist activity, [35S]GTPγS binding, FLNA-binding compound as agonist at 1 μM [4]: 220.3%
Effect on Aβ42-induced α7nAChR-FLNA association (in words) [1, 7]: reduce α7nAChR-FLNA association

O=C1CNC2(CCNCC2)N1Cc1ccccc1 [Compound C0114M]
MOR agonist activity, [35S]GTPγS binding, FLNA-binding compound as agonist at 0.1 μM [4]: 114.0%
MOR agonist activity, [35S]GTPγS binding, 1 μM + BFNA [4]: 35.9%
MOR agonist activity, [35S]GTPγS binding, FLNA-binding compound as agonist at 1 μM [4]: 144.3%
Effect on Aβ42-induced α7nAChR-FLNA association (in words) [1, 7]: reduce α7nAChR-FLNA association

O=C1CNC2(CCN(CC3CC3)CC2)N1Cc1ccccc1 [Compound C0124M]
MOR agonist activity, [35S]GTPγS binding, FLNA-binding compound as agonist at 0.1 μM [4]: 252.0%
MOR agonist activity, [35S]GTPγS binding, 1 μM + BFNA [4]: 61.4%
MOR agonist activity, [35S]GTPγS binding, FLNA-binding compound as agonist at 1 μM [4]: 305.1%
Effect on Aβ42-induced α7nAChR-FLNA association (in words) ([1]; 1 or 10 nM compound, simultaneously or 10 min prior to 0.1 μM Aβ42): reduce α7nAChR-FLNA association
TLR4/FLNA ratio versus Aβ42 alone (in words) [5]: statistically different from Aβ42 alone

Nalorphine [reference compound]
Binding to the FLNA pentapeptide of SEQ ID NO: 1 (in words) [3]: bind well

hLeptin: unrelated human proteins human leptin and human chorionic gonadotropin (hLeptin and hCG); Human recombinant leptin
Normalized OD, Average ([6]; 5 μg protein per well instead of lymphocyte lysate): 0.02
% Cross reactivity ([6]; 5 μg protein per well, relative to 5 μg AD#63 lysate): 4.3%

— patent US10222368B2 (priority 2012, dated 2019)
